Reference: patent US20210352895A1, “SYNERGISTIC PESTICIDAL COMPOSITIONS AND METHODS FOR DELIVERY OF ACTIVE INGREDIENTS” (0903608 B.C. Ltd., priority 2018, published 2021)
Like-named read-outs stand apart in the source and are kept apart here.

Tests used:
[1] = test system: Botrytis cinerea; experiment: Synergistic Growth Inhibition Assay (MIC / FIC index, resazurin, 96-well) on Botrytis cinerea; format: cell-based; conditions: Botrytis cinerea, Botrytis cinerea
Method: (§1) In some embodiments, the synergistic action between the pesticidal active ingredient, and the at least one C4-C10 (or alternatively C11 or C12) saturated or unsaturated aliphatic acid components of the pesticidal compositions according to embodiments of the present disclosure was tested using a Synergistic Growth Inhibition Assay, which is derived from and related to a checkerboard assay as is known in the art for testing of combinations of antimicrobial agents. In the Synergistic Growth Inhibition Assay used in accordance with some embodiments of the present disclosure, multiple dilutions of combinations of pesticidal active ingredient and at least one C4-C10 saturated or unsaturated aliphatic acid agents are tested in individual cells for inhibitory activity against a target pest or pathogenic organism. In one such embodiment, the combinations of pesticidal active ingredient and C4-C10 (or alternatively C11 or C12) saturated or unsaturated aliphatic acid agents may preferably be tested in decreasing concentrations. In a further such embodiment, the combinations of pesticidal active ingredient and C4-C10 (or alternatively C11 or C12) saturated or unsaturated aliphatic acid agents may be tested in increasing concentrations. These multiple combinations of the pesticidal active ingredient and at least one C4-C10 (or alternatively C11 or C12) saturated or unsaturated aliphatic acid agents may be prepared in 96-well microtiter plates. In one such embodiment, the Synergistic Growth Inhibition Assay then comprises rows which each contain progressively decreasing concentrations of the pesticidal active ingredient and one or more C4-C10 (or alternatively C11 or C12) saturated or unsaturated aliphatic acid agents to test for the MIC of the agents in combination at which growth of the target pest or pathogen is inhibited. Thus, each well of the microtiter plate is a unique combination of the two agents, at which inhibitory efficacy of the combination against the target pest or pathogen can be determined.
(§2) In one embodiment according to the present disclosure, for each row of microtiter cells in the Synergistic Growth Inhibition Assay, the FIC index is calculated from the lowest concentration of the pesticidal active ingredient and one or more C4-C10 saturated or unsaturated aliphatic acid agents necessary to inhibit growth of a target pest or pathogen. The FIC of each component is derived by dividing the concentration of the agent present in that well of the microtiter plate by the minimal inhibitory concentration (MIC) needed of that agent alone to inhibit growth of the target pest or pathogen. The FIC index is then the sum of these values for both agents in that well of the microtiter plate. The FIC index is calculated for each row as follows:
(§3) FICindex=MICa/MICA+MICb/MICB
(§4) Fractional inhibitory concentration indices may then used as measure of synergy. […] When the FIC index is equal to 1, the combination is additive.
(§5) Then, serial dilutions of these initial compositions in successive wells in the row of the microtiter plate were used to assay the pesticidal composition under the same conditions to determine the concentration of the composition combining the two agents corresponding to the microtiter well in which growth inhibition of the target pest or organism ceases.
(§6) Similarly to as described above, Resazurin was used as an indicator of growth or inhibition of growth of Botrytis cinerea in the exemplary Synergistic Growth Inhibition Assay. In addition to the color change of the resazurin, an optical or visual examination of the microtiter well may also be made to additionally determine the presence of growth or inhibition of growth of the Botrytis cinerea.

[2] = test system: Sclerotinia sclerotiorum; experiment: Synergistic Growth Inhibition Assay (MIC / FIC index, resazurin, 96-well) on Sclerotinia sclerotiorum; format: cell-based; conditions: for MIC: Sclerotinia sclerotiorum
Method: as §1, §2, §3, §4, §5
as §6, with “Sclerotinia sclerotiorum” for “Botrytis cinerea”, “Sclerotinia sclerotiorum.” for “Botrytis cinerea.”

[3] = test system: Alternaria solani; experiment: Synergistic Growth Inhibition Assay (MIC / FIC index) on Alternaria solani; format: cell-based; conditions: for MIC (A): Compound A alone
Method: as §1, §2, §3, §4, §5
Alternatively, other suitable representative pest or pathogen organisms may be used to determine synergy of combinations of pesticidal active ingredient agents and one or more C4-C10 (or alternatively C11 or C12) saturated or unsaturated aliphatic acid agents in accordance with embodiments of the present disclosure. For example, other representative fungal pathogens may be used, such as but not limited to Leptosphaeria maculans, Sclerotinia spp. and Verticillium spp.

[4] = test system: Fusarium oxysporum; experiment: Synergistic Growth Inhibition Assay (MIC / FIC index, resazurin, 96-well) on Fusarium oxysporum; format: cell-based; conditions: for MIC: Fusarium oxysporum
Method: as §1, §2, §3, §4, §5
Resazurin dye (also known as Alamar blue dye) was used as an indicator to determine the presence of growth or inhibition of growth of Fusarium oxysporum in the wells of the 96 well microtiter plates used in the exemplary Synergistic Growth Inhibition Assay. In addition to the color change of the resazurin dye in the presence of growth of the Fusarium oxysporum, an optical or visual examination of the microtiter well may also be made to additionally determine the presence of growth or inhibition of growth of the Fusarium oxysporum.

[5] = test system: Trichoplusia ni; experiment: In-vitro insecticidal efficacy of Entrust SC (spinosad) with saturated and unsaturated aliphatic acids on artificial diet, Abbott and Colby formulae; format: in vivo, Trichoplusia ni (cabbage looper); conditions: Entrust SC 0.034 ppm ([…] spinosad); aliphatic acid (salt) 500 ppm; Abbott-corrected
Method: An artificial diet suitable for Trichoplusia ni (cabbage looper caterpillar) was prepared from a commercially available general purpose lepidoptera artificial diet premix (General Purpose Lepidoptera Diet available from Frontier Scientific Services, Newark, Del.) mixed in agar media and then heated to liquify the media. The liquid artificial diet media was then used to fill each well of a 96-well treatment plate with 200 uL of artificial diet media, which was allowed to solidify at room temperature and stored at approximately 4 C.
A 20 uL treatment sample of each treatment formulation was then placed on top of the solidified artificial diet media in each well of the 96 well plates and allowed to dry overnight. The following day, one neonate Trichoplusia ni (cabbage looper) larva (hatched from eggs obtained from the Natural Resource Canada insect research facility in Sault-Ste-Marie, ON, Canada) was added to each well of the plate, and their mortality rate was evaluated after 5 days, to determine the insecticidal efficacy of the Entrust® SC treatment alone, each exemplary unsaturated or saturated aliphatic acid (and salt) alone, and each combination of spinosad (as Entrust® SC) and unsaturated or saturated aliphatic acid (and salt). Each experiment contained 3 replicates.
While for SF<1, antagonism is present and for SF=1, the efficacy of the compounds is merely additive.

[6] = 48 h, Compound B alone, 48 hours incubation, read-out: MIC (B)
[7] = Alternaria solani, Compound B alone, 7 days incubation, read-out: MIC (B)
[8] = Alternaria solani, Compound B alone, Alternaria solani, incubation period of 7 days, read-out: MIC (B)
[9] = 96 h, Table 58, Compound B = saturated aliphatic acid, alone or in combination with oregano oil, incubation for 4 days, read-out: MIC (B)
[10] = 24 h, Table 75, Compound B = saturated aliphatic acid, alone or in combination with wintergreen oil, incubation period of 24 hours, read-out: MIC (B)
[11] = 24 h, Table 78, Compound B = saturated aliphatic acid, alone or in combination with oregano oil, incubation period of 24 hours, read-out: MIC (B)
[12] = Compound A alone, incubation period of 48 hours

CCCCC(CC)C(=O)O (centres unmarked) [2-ethylhexanoic acid]
MIC [1, 6]: 312 µg/mL | MIC ([1]; 48 h, Compound B alone, incubation period of 48 hours, read-out: MIC (B)): 312 µg/mL | MIC ([2]; Compound B alone, incubation period of 7 days, read-out: MIC (B)): 625 µg/mL | MIC [3, 7]: 312 µg/mL

CCCCCCCCC(C)C(=O)O (centres unmarked) [2-methyldecanoic acid]
MIC [4, 6]: 62.5 µg/mL | MIC ([1]; 48 h, Compound A alone, incubation period of 48 hours, read-out: MIC (A)): 15.6 µg/mL | MIC [3, 7]: 1000 µg/mL | MIC [3, 8]: 125 µg/mL

CCCCCCC(C)C(=O)O (centres unmarked) [2-methyloctanoic acid]
MIC [4, 6]: 156 µg/mL | MIC [3, 7]: 625 µg/mL | MIC [3, 8]: 156 µg/mL

O=C(O)CCCCCCCO [8-hydroxyoctanoic acid]
MIC ([4]; 48 h, read-out: MIC (B), Compound B alone, 48 hours incubation): 5000 µg/mL | MIC ([4]; 48 h, read-out: MIC (B), Compound B alone, incubation period of 48 hours): 5000 µg/mL | MIC ([2]; read-out: MIC (B), Compound B alone, 7 days incubation): 2500 µg/mL | MIC ([2]; read-out: MIC (B), Compound B alone, incubation period of 7 days): 5000 µg/mL | MIC ([3]; Alternaria solani, read-out: MIC (B), Compound B alone, 7 days incubation): 2500 µg/mL

CCCCCCCCCC(=O)O [Decanoic acid, decanoic acid]
MIC ([4]; 24 h, Table 53, Compound B = saturated aliphatic acid, alone or in combination with wintergreen oil, incubation for 24 hours, read-out: MIC (B)): 62.5 µg/mL | MIC ([4]; 96 h, Compound B alone, incubation for 4 days, read-out: MIC (B)): 62.5 µg/mL | Observed Efficacy, W (%) [5]: 0%

CCCCCCC(=O)O [Heptanoic acid, heptanoic acid]
MIC ([4]; 96 h, Table 54, Compound B = saturated aliphatic acid, alone or in combination with peppermint oil, incubation for 4 days, read-out: MIC (B)): 312 µg/mL | MIC ([4]; 96 h, Table 55, Compound B = saturated aliphatic acid, alone or in combination with spearmint oil, incubation for 4 days, read-out: MIC (B)): 156 µg/mL | MIC [4, 9]: 78.1 µg/mL | MIC [1, 10]: 39.1 µg/mL | MIC [1, 11]: 78.1 µg/mL | MIC ([1]; 96 h, Table 76, Compound B = saturated aliphatic acid, alone or in combination with spearmint oil, incubation period of 4 days, read-out: MIC (B)): 78.1 µg/mL | MIC ([2]; Table 68, Compound B = saturated aliphatic acid, alone or in combination with clove leaf oil, incubation period of 7 days, read-out: MIC (B)): 78.1 µg/mL | MIC ([2]; Table 70, Compound B = saturated aliphatic acid, alone or in combination with rosemary oil, incubation period of 7 days, read-out: MIC (B)): 78.1 µg/mL | Observed Efficacy, W (%) [5]: 9.1%

CCCCCC(=O)O [Hexanoic acid, hexanoic acid]
MIC ([4]; 24 h, read-out: MIC (B), Table 51, Compound B = saturated aliphatic acid, alone or in combination with thyme oil, incubation for 24 hours): 78.1 µg/mL | MIC ([4]; 24 h, read-out: MIC (B), Table 52, Compound B = saturated aliphatic acid, alone or in combination with garlic oil, incubation for 24 hours): 156 µg/mL | MIC ([4]; 96 h, read-out: MIC (B), Table 54, Compound B = saturated aliphatic acid, alone or in combination with peppermint oil, incubation for 4 days): 156 µg/mL | MIC ([4]; 96 h, read-out: MIC (B), Table 58, Compound B = saturated aliphatic acid, alone or in combination with oregano oil, incubation for 4 days): 156 µg/mL | MIC ([1]; 24 h, read-out: MIC (B), Table 75, Compound B = saturated aliphatic acid, alone or in combination with wintergreen oil, incubation period of 24 hours): 39.1 µg/mL | MIC ([1]; 24 h, read-out: MIC (B), Table 78, Compound B = saturated aliphatic acid, alone or in combination with oregano oil, incubation period of 24 hours): 156 µg/mL | MIC ([1]; 96 h, read-out: MIC (B), Table 74, Compound B = saturated aliphatic acid, alone or in combination with thyme oil, incubation period of 4 days): 312 µg/mL | MIC ([1]; 96 h, read-out: MIC (B), Table 76, Compound B = saturated aliphatic acid, alone or in combination with spearmint oil, incubation period of 4 days): 312 µg/mL | MIC (B) ([1]; Compound B (aliphatic acid) alone, 2-fold dilutions, incubation period of 48 hours): 78.12 µg/mL | Observed Efficacy, W (%) [5]: 27.3%

CCCCCCCCC(=O)O [Nonanoic acid, nonanoic acid]
MIC ([4]; 24 h, read-out: MIC (B), Table 53, Compound B = saturated aliphatic acid, alone or in combination with wintergreen oil, incubation for 24 hours): 156 µg/mL | MIC [4, 9]: 78.1 µg/mL | MIC ([4]; 96 h, read-out: MIC (B), Table 55, Compound B = saturated aliphatic acid, alone or in combination with spearmint oil, incubation for 4 days): 156 µg/mL | MIC [1, 10]: 39.1 µg/mL | MIC [1, 11]: 78.1 µg/mL | Observed Efficacy, W (%) [5]: 0%

CO/C=C(/C(=O)OC)c1ccccc1COc1cccc(C(F)(F)F)n1 [Picoxystrobin, reference compound]
MIC (A) [1, 12]: 250 µg/mL | MIC (A) ([2]; Compound A alone, 7 days incubation): 500 µg/mL | MIC (A) ([3]; Alternaria solani, incubation period of 7 days): 500 µg/mL

CCCCCCC/C=C/C(=O)O [Trans-2 decenoic acid]
MIC (B) ([1]; Compound B alone, incubation period of 48 hours): 39.06 µg/mL | Observed Efficacy, W (%) [5]: 0%

CCC/C=C/C(=O)O [Trans-2-hexenoic acid, trans-2-hexenoic acid]
MIC (B) ([4]; Compound B alone, 24 hour incubation): 312.5 µg/mL | Observed Efficacy, W (%) [5]: 0%

Mancozeb [reference compound]
MIC (A) [1, 12]: 31.25 µg/mL | MIC (A) ([3]; 7 days incubation): 500 µg/mL
